Data: patent US8911953B2, “TDF-related compounds and analogs thereof, analogs and bioactive fragments” (Thrasos Innovation, Inc., priority 2005, dated 2014)
Positions of bridges follow the written chain, without caps; N, C: chain ends. No end group written: not given here.

Experiments:
[1] = system: bladder cancer cells (5637); assay: Cisplatin-induced apoptosis/necrosis in bladder cancer cells; assay type: cell-based, human; conditions: cisplatin at different concentrations
NTN mice [2] = assay: Nephrotoxic serum nephritis (NTN) model of chronic renal failure; assay type: in vivo, mouse; conditions: oral 5 mg/kg/24 hr, weeks 6-9
Excerpt: Attenuation of renal fibrosis progression by TDFRP compound in the chronic renal failure mouse model, nephrotoxic serum nephritis (NTN). A: NTN Model Experimental Protocol. Nephrotoxic serum was given intravenously on Day 0 (D0) and animals were sacrificed either at 6 weeks or 9 weeks. Two different drug regimens were used: treatment from weeks 1-6 or from weeks 6-9. B: Kidney section of 6-9 week, vehicle-treated […] animal, C: Kidney section of animal received oral administration of TDFRP compound (SEQ ID NO 45) (5 mg/kg/24 hr) from weeks 6-9.
Renal fibrosis involves interestitial fibrosis, tubular atrophy, and glomerulosclerosis. The mouse nephrotoxic serum nephritis (NTN) renal fibrosis model mimics human chronic renal injury. NTN mice develop glomerulonephritis following injection with nephrotoxic serum (NTS), which progresses to tubulointerstitial disease and eventually renal fibrosis after 6 weeks (see Lloyd, et al. (1997) J. Exp. Med. 185, 1371-1380.; Zeisberg et al. (2003) Nat. Med. 9, 964-968.)
Nephrotoxic serum nephritis (NTN) is a model of progressive chronic renal injury. Mice given injections of nephrotoxic serum (NTS) develop glomerulonephritis, leading to tubulointerstitial disease associated with EMT, and ultimately renal fibrosis, over a period of about six weeks. […] In these studies, BMP-7 was able to restore expression of E-cadherin proteins in previously damaged tubules. […] For a review of the above see, Zeisberg et al., Nature Medicine, 9; 7 pp 964-968, (2003) and Kalluri et al., J. Clin Investigation 112:1776-1784 (2003).

[3] = system: vascular endothelial cells; assay: Smad 1, 5 phosphorylation in vascular endothelial cells (Western blot); assay type: cell-based; conditions: added to vascular endothelial cells in culture
Experimental: (§1) Phosphorylation and nuclear translocation of Smads occurs following the activation of Type I and Type II receptors and subsequent signal transduction to intracellular Smad targets. Phosphorylation and nuclear translocation of R-Smad in HK-2, vascular endothelial, human prostate or other cells by TDFRP compounds is assayed by immuno-fluorescent microscopy methods, using anti-phospho Smad 1/5 antibodies according to the procedure of H Aoki, M Fujii, T Imamura, K Yagi, K Takehara, M Kato and K Miyazono. J. of Cell Sci. 114, 1483-1489, 2001) and by Western blot analysis (FIGS. 2, 3, 18, 2X).
The detection of Smad phosphorylation by Western analysis, for example in LNCaP (prostate cancer cells) or EC (vascular endothelial cells) in culture medium can be examined after exposure to varying concentrations of TDFRP or control compounds. BMP-7 serves as a positive control. Cells are lysed in RIPA lysis buffer (50 mM Tris-HCl at pH 8.0, 150 mM NaCl, 1% NP-40, 0.5% sodium deoxycholate, 0.1% SDS) containing 1 mM PMSF, 1 mM sodium orthovanadate, and 10 ug/mL proteinase inhibitor cocktail. Lysates are incubated on ice for 15 minutes, centrifuged, and transferred supernatant to a clean tube. 50 to 100 ug is used for analysis by SDS-PAGE. Resolved proteins are electro transferred onto PVDF membrane. The blot is blocked by incubating in 3% non-fat dry milk prepared in PBS at room temperature for 1 hour with constant slow agitation. The blot is incubated with 1-2 ug/mL of primary antibody (rabbit anti-phospho-Smad 1) prepared in PBS-milk, overnight with agitation at 4 degree C., washed twice with PBS, and incubated with secondary antibody (anti rabbit HRP conjugated IgG, 1:3000 dilution) at room temperature for 2 hours with agitation. After washing in PBS-0.05% Tween 20 for 5 minutes and rinsing, Smad phosphorylation is detected via an HRP reaction according to manufacturer's instructions (FIGS. 2, 3, 18, 2X).
as §1, with “HK-2” for “HK-2, vascular endothelial, human prostate or other”, “analysis in various cell types” for “analysis”, “27).” for “2X).”
For detection of Smad phosphorylation by Western analysis, LNCaP (prostate cancer cells) or EC (vascular endothelial cells) in culture medium are exposed to varying concentrations of TDFRP or control compounds. BMP-7 served as a positive control. Cells are lysed in RIPA lysis buffer (50 mM Tris-HCl at pH 8.0, 150 mM NaCl, 1% NP-40, 0.5% sodium deoxycholate, 0.1% SDS) containing 1 mM PMSF, 1 mM sodium orthovanadate, and 10 ug/mL proteinase inhibitor cocktail. Lysates are incubated on ice for 15 minutes, centrifuged, and transferred supernatant to a clean tube. 50 to 100 ug is used for analysis by
SDS-PAGE. Resolved proteins are electro transferred onto PVDF membrane. The blot is blocked by incubating in 3% non-fat dry milk prepared in PBS at room temperature for 1 hour with constant slow agitation. The blot is incubated with 1-2 ug/mL of primary antibody (rabbit anti-phospho-Smad 1) prepared in PBS-milk, overnight with agitation at 4 degree C., washed twice with PBS, and incubated with secondary antibody (anti rabbit HRP conjugated IgG, 1:3000 dilution) at room temperature for 2 hours with agitation. After washing in PBS-0.05% Tween 20 for 5 minutes and rinsing, Smad phosphorylation is detected via an HRP reaction according to manufacturer's instructions (FIGS. 3, 27).

NTN mice [4] = conditions: cited from earlier work

Molecule: CYFDDSSNVLCKKYRS (disulfide 1-11 (inferred); not fully specified) [SEQ ID NO:45]
- apoptosis/necrosis induced by cisplatin (interference with anti-tumor activity) [1]: does not alter
- glomerulosclerosis (NTN mice [2]): attenuated the severity of glomerulosclerosis
- matrix deposition (NTN mice [2]): attenuated the amount of matrix deposition
- tubular atrophy (NTN mice [2]): attenuated the severity of tubular atrophy
- progression of renal fibrosis (NTN mice [2]; 5 mg/kg): significantly attenuated
- phosphorylation and activation of intracellular Smad 1, 5 [3]: phosphorylation and activation of intracellular Smad 1, 5

B1: BMP-7: recombinant human mature BMP-7 (BMP-7 or TDF-1), positive control therapy (protein)
chain: STGSKQRSQNRSKTPKNQEALRMANVAENSSSDQRQACKKHELYVSFRDLGWQDWIIAPEGYAAYYCEGECAFPLNSYMNATNHAIVQTLVHFINPETVPKPCCAPTQLNAISVLYFDDSSNVILKKYRNMVVRACGCH
- progression to chronic renal disease (NTN mice [4]; about 300 micrograms/kg, starting after one week of NTN): prevent progression to chronic renal disease
- renal pathology (NTN mice [4]; treatment from week 3 or week 4 through week 6): almost completely reversed renal pathology
